Assays:
L-1210 leukemia = test: Anti-cancer study, L-1210 leukemia in BDF1 mice; assay type: in vivo, mouse; settings: 20 mg/kg, seven days (Table 25)
Description: Mice of the BDF1 strain are given an i.p. inoculation of 10^6 L-1210 leukemia cells on day 0. Twenty-four hours later, groups of 7 mice each are started on a […] treatment regimen of various doses of the compounds of this invention. The experiment is continued according to the guidelines provided under the National Cancer Institute protocol for screening new anti-cancer agents and T/C ratios (median or mean survival time of treated groups over median or mean survival time of controls) are calculated. A T/C value ≥1.25 (or 125%) is considered significant anticancer activity.
(§1) Mice of the BDF1 strain, inoculated with L-1210 leukemia cells, are treated for seven days with either 25, 50, 100, 200 or 400 mg/kg of Cpd. 1 or just buffer. The National Cancer Institute protocol for screening new anti-cancer agents is followed and T/C ratios are calculated.
as §1, with “either 100” for “either 25, 50, 100, 200 or 400”, “Cpd. 1, 20 mg/kg of 5-fluorouracil (5-FU), a known anti-cancer agent,” for “Cpd. 1”

human lymphocytes = test: In vitro lymphocyte stimulation assay in humans; assay type: cell-based; settings: 0.1-100 μg/well, PHA and Con-A
Description: (§2) The purpose of this assay is to challenge lymphocytes in microcultures with one or more polyclonal mitogens at concentrations that will induce mitogenesis within 72 hours of stimulation.
(§3) In the mouse model, spleens are removed from different strains of mice and the spleen cells are teased free and suspended in RPMI-1640 tissue culture medium at a concentration of usually 1×10^7 ml. These cells are dispensed at a concentration of 5.0×10^5 cells per microculture well in a 96 well flat bottom 96 well tissue culture plate. All testing of the compounds of this invention or mitogens are done in replicates of 10. The cells are then treated with PHA, Con-A, specific antigens, or buffer only. If in vitro testing is done, varying concentrations of the compounds of this invention or buffer only are added to the cells as well. After treatment with the mitogens and/or compounds of this invention, the cells are incubated for 72 hours. The response of these cells to mitogens and/or the compounds of this invention is assessed using ^14 C-thymidine labeling on the fourth day at a concentration of 0.01 μCi/well. The labeled cells are harvested using a lymphocyte harvestor and placed onto fibrous paper discs. A scintillation cocktail is added to vials contaning the discs and the results are obtained using a LKB-liquid scintillation counter (Model 1216/Rackbeta II). The data is expressed as a ratio of the cpm of the mitogen stimulated group to the control (non-mitogen) treated group=lymphocyte stimulation index (LSI).
The lymphocyte stimulation assay may be performed directly on spleen cells obtained from various strains of mice not treated with the compounds of this invention or on lymphocytes obtained from […]. […] Alternatively, the mice may be treated in vivo with the compounds of this invention by intraperitoneal multi-dose schedules, followed by sacrifice and harvesting spleen lymphocytes. These cells are then tested for their response to polyclonal mitogens or specific antigens used to immunize the mice. […]

[1] = test system: spleen lymphocytes of C57BL/6 mice; test: In vivo treatment, lymphocyte stimulation assay, C57BL/6 mice; settings: 4 days
Description: as §2, §3
(§4) The lymphocyte stimulation assay may be performed directly on spleen cells obtained from various strains of mice not treated with the compounds of this invention or on lymphocytes obtained from […]. […] Alternatively, the mice may be treated in vivo with the compounds of this invention by intraperitoneal multi-dose schedules, followed by sacrifice and harvesting spleen lymphocytes. These cells are then tested for their response to polyclonal mitogens or specific antigens used to immunize the mice. In this sytem however, no additional compound is added to the in vitro lymphocyte stimulation assay system.
Two strains of mice, C57BL/6 and BDF1 are treated for seven days with i.p. administration of either 25, 50, 100, 200, or 400 mg/kg of Cpd. 1 or just buffer. This is followed on the eighth day by a lymphocyte stimulation assay.
A comparison is made of the lymphocyte response to C57BL/6 mice treated 4 days with i.p. administration of either 50, 100, 200, 400 or 800 mg/kg of Cpd. 1, 50, 100, 200, 400 or 800 mg/kg of ascorbic acid (AA), or just buffer. This is followed on the fifth day by a lymphocyte stimulation assay.
Two strains of mice, C57BL/6 and BALB/c, are treated 4 days with i.p. administration of either 50, 100, 200, or 400 mg/kg of Cpd. 1, or just buffer. This is followed on the fifth day by a lymphocyte stimulation assay.
C57BL/6 mice were treated with four daily i.p. doses of either 50, 100, 200, or 400 mg/kg of Cpd. 1 or just buffer. On the fifth day a lymphocyte stimulation assay was performed.
Mice of the C57BL/6 strain were tested with i.p. administration of either 100, 200, 400 or 600 mg/kg of Cpd. 1 or just buffer. This was followed by removal of spleens and treatment of lymphocytes therein with mitogens PHA and Con-A.
The compound of Example 2, Cpd. 2, was tested in vivo by using C57BL/6 mice and treating them with […] or just buffer for four consecutive days by the i.p. route. On the fifth day a lymphocyte stimulation assay was performed.

[2] = test system: spleen lymphocytes from C57BL/6 mice; test: In vitro lymphocyte stimulation assay, C57BL/6 spleen lymphocytes; assay type: cell-based, mouse
Description: as §2, §3, §4
An in vitro lymphocyte stimulation assay is performed directly on normal spleen lymphocytes removed from five normal C57BL/6 mice, using concentrations of Cpd. […] Following three days of incubation the assay is completed.
An in vitro lymphocyte stimulation assay was performed using spleen lymphocytes from normal C57BL/6 mice. The lymphocytes were treated with either 1, 5, 10, 50, or 100 μg/well of Cpd. 1 or buffer.
Cpd. 2 was tested using normal spleen lymphocytes from C57BL/6 mice. A lymphocyte stimulation assay was conducted using either 1, 5, 10, 50, or 100 μg/well […] or just buffer.
Spleen cells from C57BL/6 mice were treated, in vitro, with the crystallizing reagents, succinic acid and succinimide. Since these compounds are spontaneously released from the molecular complex in solution at a molar ratio of 2 moles of Cpds. 1, 2, or 3 per mole of the crystalline reagent, these reagents were treated in the lymphocyte stimulation assay at proper molar concentrations.
The compound of example 3, Cpd. 3, was used to treat C57BL/6 spleen lymphocytes in vitro. The lymphocytes were treated with either 1, 5, 10, 50, or 100 μg/well of Cpd. 3 or just buffer and then a lymphocyte stimulation assay was performed.

O=c1[nH]cc(F)c(=O)[nH]1 [5-FU, 5-fluorouracil, reference compound]
Median Survival Time (L-1210 leukemia): 30

O=C1O[C@H]([C@@H](O)CO)C(O)=C1O [AA, ascorbic acid, reference compound]
proliferative or anti-proliferative effect (human lymphocytes): no significant proliferative or anti-proliferative effect | proliferation with Con-A ([1]; 50 mg/kg i.p.): stimulation of proliferation | effect with PHA ([1]; 50-800 mg/kg i.p.): No statistically significant measurable effect

CN1C(=O)CCC1=O.Cc1ccc(C2(O)C(=O)OC3C(O)COC32O)o1.Cc1ccc(C2(O)C(=O)OC3C(O)COC32O)o1 (stereo not shown) [Cpd. 3]
Lymphocyte Stimulation Index, Con-A ([2]; 1 μg/well in vitro): 73.2 | Lymphocyte Stimulation Index, Control (no mitogen) ([2]; 1 μg/well in vitro): .60 | Lymphocyte Stimulation Index, PHA ([2]; 1 μg/well in vitro): 12.5 | Lymphocyte Stimulation Index, Con-A ([2]; 5 μg/well in vitro): 80.9 | Lymphocyte Stimulation Index, Control (no mitogen) ([2]; 5 μg/well in vitro): .64 | Lymphocyte Stimulation Index, PHA ([2]; 5 μg/well in vitro): 18.5 | response to PHA ([2]; 10 μg/well): significantly stimulated the response | Lymphocyte Stimulation Index, Con-A ([2]; 10 μg/well in vitro): 89.6 | Lymphocyte Stimulation Index, Control (no mitogen) ([2]; 10 μg/well in vitro): .47 | Lymphocyte Stimulation Index, PHA ([2]; 10 μg/well in vitro): 24.0 | response to Con-A ([2]; 50 μg/well): slightly stimulated the response | Lymphocyte Stimulation Index, Con-A ([2]; 50 μg/well in vitro): 97.2 | Lymphocyte Stimulation Index, Control (no mitogen) ([2]; 50 μg/well in vitro): .27 | Lymphocyte Stimulation Index, PHA ([2]; 50 μg/well in vitro): 4.08 | response to Con-A ([2]; 100 μg/well): suppressed the response | Lymphocyte Stimulation Index, Con-A ([2]; 100 μg/well in vitro): 2.88 | Lymphocyte Stimulation Index, Control (no mitogen) ([2]; 100 μg/well in vitro): .25 | Lymphocyte Stimulation Index, PHA ([2]; 100 μg/well in vitro): 0.263 | response to PHA ([2]; 50 and 100 μg/well): suppressed the response

O=C(O)CCC(=O)O [Succinic Acid, succinic acid, reference compound]
Lymphocyte Stimulation Index, Con-A ([2]; 1.04 μg/well in vitro): 64.6 | Lymphocyte Stimulation Index, Control (no mitogen) ([2]; 1.04 μg/well in vitro): .94 | Lymphocyte Stimulation Index, PHA ([2]; 1.04 μg/well in vitro): 15.7 | Lymphocyte Stimulation Index, Con-A ([2]; 2.08 μg/well in vitro): 51.1 | Lymphocyte Stimulation Index, Control (no mitogen) ([2]; 2.08 μg/well in vitro): 1.0 | Lymphocyte Stimulation Index, PHA ([2]; 2.08 μg/well in vitro): 15.3 | Lymphocyte Stimulation Index, Con-A ([2]; 4.15 μg/well in vitro): 42.3 | Lymphocyte Stimulation Index, Control (no mitogen) ([2]; 4.15 μg/well in vitro): .91 | Lymphocyte Stimulation Index, PHA ([2]; 4.15 μg/well in vitro): 14.0 | Lymphocyte Stimulation Index, Con-A ([2]; 8.3 μg/well in vitro): 35.6 | Lymphocyte Stimulation Index, Control (no mitogen) ([2]; 8.3 μg/well in vitro): .91 | Lymphocyte Stimulation Index, PHA ([2]; 8.3 μg/well in vitro): 12.4 | Lymphocyte Stimulation Index, Con-A ([2]; 16.6 μg/well in vitro): 38.5 | Lymphocyte Stimulation Index, Control (no mitogen) ([2]; 16.6 μg/well in vitro): 1.1 | Lymphocyte Stimulation Index, PHA ([2]; 16.6 μg/well in vitro): 11.5 | PHA and Con-A mitogenesis ([2]; with increased dosage, 1.04-16.6 μg/well): decrease in PHA and Con-A mitogenesis

O=C1CCC(=O)N1 [Succinimide, succinimide, reference compound]
Lymphocyte Stimulation Index, Con-A ([2]; 13.92 μg/well in vitro): 92.9 | Lymphocyte Stimulation Index, Control (no mitogen) ([2]; 13.92 μg/well in vitro): 1.4 | Lymphocyte Stimulation Index, PHA ([2]; 13.92 μg/well in vitro): 17.1 | effect on response to either mitogen ([2]; 0.87-13.92 μg/well): no significant suppressive or enhancing effect

Reference: patent US4620014A, “2-furylbutyrolactones and methods for using same” (priority 1983, dated 1986)
